We go through 17 compounds from patent publication US9708336B2, “Metallo-beta-lactamase inhibitors” (priority 2014, dated 2017).

The test system of assay [1] is Escherichia coli expressing NDM-1 (CLB30016). As to the kind of experiment: Antibiotic potentiation activity: synergistic concentration (MITC95) with imipenem, OD600 growth. The format is cell-based. As to conditions: Escherichia coli expressing NDM-1 (CLB30016), 95% growth inhibition. The procedure, abridged:
(§1)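 In 1.1× CAMHB, clinical isolates from overnight plates were challenged with test compound alongside imipenem at an assay concentration of 4 μg/ml, sometimes 1 μg/ml. Plates sat covered at 35 °C for 22–24 h prior to spectrophotometric reading.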

In assay [2] the test system is Serratia marcescens expressing IMP-1 (CL5741). The description is as above. The format is cell-based. The following applies: Serratia marcescens expressing IMP-1 (CL5741), 95% growth inhibition. The procedure, abridged: as §1
Assay [3] has as its system Klebsiella pneumoniae expressing VIM-1 (IHMA599644). The assay is described as above. It counts as cell-based. The following applies: Klebsiella pneumoniae expressing VIM-1 (IHMA599644), 95% growth inhibition. The procedure, abridged: as §1
The target of a further assay is NDM-1 (Klebsiella pneumoniae, UniProt C7C422). As to the kind of experiment: biochemical. It counts as biochemical. As to conditions: NDM-1 enzyme, CCF2-FA fluorescence assay; read-out: NDM-1 IC50.
Sequence of NDM-1 (C7C422 whole entry, looked up, species assumed): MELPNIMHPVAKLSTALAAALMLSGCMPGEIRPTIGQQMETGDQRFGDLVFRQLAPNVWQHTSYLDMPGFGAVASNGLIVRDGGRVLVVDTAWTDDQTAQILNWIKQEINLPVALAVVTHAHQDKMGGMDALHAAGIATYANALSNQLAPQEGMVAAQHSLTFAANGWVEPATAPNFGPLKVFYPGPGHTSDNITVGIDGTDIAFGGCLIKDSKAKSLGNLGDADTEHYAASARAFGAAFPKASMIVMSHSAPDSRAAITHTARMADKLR
The target in a further assay is VIM-1 (Pseudomonas aeruginosa (strain ATCC 15692 / DSM 22644 / CIP 104116 / JCM 14847 / LMG 12228 / 1C / PRS 101 / PAO1), UniProt A0A0F7KYQ8). As to the kind of experiment: Enzyme activity: determination of IC50, fluorescence assay with CCF2-FA substrate (VIM-1). As to conditions: CCF2-FA fluorescence assay. It counts as biochemical.
The next assay deals with IMP-1 (Serratia marcescens, UniProt P52699). The assay can be described thus: biochemical. The format is biochemical. As to conditions: IMP-1 enzyme, CCF2-FA fluorescence assay; read-out: IMP-1 IC50.
Sequence of IMP-1 (P52699 whole entry, looked up): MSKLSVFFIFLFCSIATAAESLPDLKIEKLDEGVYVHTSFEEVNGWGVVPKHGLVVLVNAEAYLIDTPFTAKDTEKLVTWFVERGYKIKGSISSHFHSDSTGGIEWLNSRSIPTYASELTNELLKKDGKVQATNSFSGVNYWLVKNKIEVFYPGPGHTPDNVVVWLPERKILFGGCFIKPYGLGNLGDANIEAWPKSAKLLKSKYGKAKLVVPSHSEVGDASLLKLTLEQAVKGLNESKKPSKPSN
The mark [4] stands for this setting: VIM-1 enzyme, read-out: VIM-1 IC50.

SMILES strings stand for the structures. Where two headings read alike, the source gives them in different places.

The term IC50 denotes the concentration needed to halve the response being measured. With `NS(=O)(=O)c1c(CC2(F)CCNC2)ccc(-c2ccc(C3CCNCC3)cc2)c1-c1nn[nH]n1` (stereo not drawn) [Example 467, 4-((3-fluoropyrrolidin-3-yl)methyl)-4′-(piperidin-4-yl)-2-(2H-tetrazol-5-yl)-[1,1′-biphenyl]-3-sulfonamide], the “Escherichia coli MITC95” value in assay [1] was 0.7813 µM. Besides, the “Serratia marcescens MITC95” value in assay [2] stood at 1.563 µM. Also, in assay [3], the “Klebsiella pneumoniae MITC95” value came out at 1.563 µM. Moreover, the IC50 at NDM-1 was 10.2 nM; on VIM-1 (setting [4]), 4.75 nM; on IMP-1, 34.8 nM.

For `NS(=O)(=O)c1c(CC2CCNC2)ccc(-c2ccc(C3CCNCC3)cc2)c1-c1nn[nH]n1` (stereo not drawn) [Example 468, 4′-(piperidin-4-yl)-4-(pyrrolidin-3-ylmethyl)-2-(2H-tetrazol-5-yl)-[1,1′-biphenyl]-3-sulfonamide], the “Escherichia coli MITC95” value in assay [1] worked out at 0.7813 µM. Also, the “Serratia marcescens MITC95” value in assay [2] is 1.563 µM. Further, the “Klebsiella pneumoniae MITC95” value in assay [3] stood at 1.563 µM. Moreover, the IC50 is 9.95 nM on NDM-1, 3.81 nM at VIM-1 (setting [4]) and 13.5 nM on IMP-1.

Regarding `NS(=O)(=O)c1c(CC2CNC2)ccc(-c2ccc(C3CCNCC3)cc2)c1-c1nn[nH]n1` [Example 469, 4-(azetidin-3-ylmethyl)-4′-(piperidin-4-yl)-2-(2H-tetrazol-5-yl)-[1,1′-biphenyl]-3-sulfonamide], the “Escherichia coli MITC95” value in assay [1] is 0.7813 µM. The “Serratia marcescens MITC95” value in assay [2] was found to be 1.563 µM. For the same compound, the “Klebsiella pneumoniae MITC95” value in assay [3] was found to be 1.563 µM. Also, the IC50 on NDM-1 came to 10.7 nM; on VIM-1 (setting [4]) it was 7.65 nM; on IMP-1, 29.7 nM.

`NS(=O)(=O)c1c(CC2CCNCC2)ccc(-c2ccc(C3CCN(CC4CNC4)CC3)cc2)c1-c1nn[nH]n1` [Example 470, 4′-(1-(azetidin-3-ylmethyl)piperidin-4-yl)-4-(piperidin-4-ylmethyl)-2-(2H-tetrazol-5-yl)-[1,1′-biphenyl]-3-sulfonamide]: the “Escherichia coli MITC95” value in assay [1] worked out at 0.7813 µM. The “Serratia marcescens MITC95” value in assay [2] was found to be 1.563 µM. The “Klebsiella pneumoniae MITC95” value in assay [3] was determined as 12.5 µM. In addition, the figures for the IC50 on NDM-1, on VIM-1 (setting [4]) and at IMP-1 were 27 nM, 101 nM and 3.23 nM, respectively.

In the case of `NS(=O)(=O)c1c(CC2CCN(CC3CNC3)CC2)ccc(-c2ccc(C3CCNCC3)cc2)c1-c1nn[nH]n1` [Example 471, 4-((1-(azetidin-3-ylmethyl)piperidin-4-yl)methyl)-4′-(piperidin-4-yl)-2-(2H-tetrazol-5-yl)-[1,1′-biphenyl]-3-sulfonamide], the “Escherichia coli MITC95” value in assay [1] amounted to 0.7813 µM. Besides, in assay [2], the “Serratia marcescens MITC95” value turned out to be 1.563 µM. The “Klebsiella pneumoniae MITC95” value in assay [3] worked out at 1.563 µM. Moreover, the IC50 at NDM-1 is 2.72 nM; at VIM-1 (setting [4]), 2.05 nM; on IMP-1, 8.68 nM.

For `N=C(N)NC1CCC(CCc2ccc(-c3ccc(C4CCN(C(=N)N)CC4)cc3)c(-c3nn[nH]n3)c2S(N)(=O)=O)CC1` (stereo not drawn) [Example 472, 4-(4′-(2-(4-guanidinocyclohexyl)ethyl)-3′-sulfamoyl-2′-(2H-tetrazol-5-yl)-[1,1′-biphenyl]-4-yl)piperidine-1-carboximidamide], the “Escherichia coli MITC95” value in assay [1] was found to be 1.172 µM. In addition, the “Serratia marcescens MITC95” value in assay [2] worked out at 0.7813 µM. The “Klebsiella pneumoniae MITC95” value in assay [3] is 75 µM. For the same compound, the IC50 worked out at 0.505 nM at NDM-1; 13.4 nM on VIM-1 (VIM-1 IC50, VIM-1 enzyme); 0.661 nM on IMP-1.

As for `NS(=O)(=O)c1c(CCC(F)(F)F)ccc(-c2ccc(C3CCNCC3)cc2)c1-c1nn[nH]n1` [Example 473, 4′-(piperidin-4-yl)-2-(2H-tetrazol-5-yl)-4-(3,3,3-trifluoropropyl)-[1,1′-biphenyl]-3-sulfonamide], in assay [1], the “Escherichia coli MITC95” value came out at 4.688 µM. Moreover, the “Serratia marcescens MITC95” value in assay [2] is 0.5859 µM. The “Klebsiella pneumoniae MITC95” value in assay [3] came to 4.688 µM. Besides, the IC50 on NDM-1 was 4.47 nM; on VIM-1 (setting [4]) it was 1.42 nM; on IMP-1, 7.3 nM.

For `NS(=O)(=O)c1c(C(F)(F)F)ccc(-c2cnc3cc[nH]c3c2)c1-c1nnn[nH]1` [Example 474, 3-(1H-pyrrolo[3,2-b]pyridin-6-yl)-2-(1H-tetrazol-5-yl)-6-(trifluoromethyl)benzenesulfonamide], in assay [1], the “Escherichia coli MITC95” value was found to be 0.09375 µM. The “Serratia marcescens MITC95” value in assay [2] amounted to 0.4453 µM. In addition, the “Klebsiella pneumoniae MITC95” value in assay [3] was 1.531 µM. The IC50 worked out at 0.523 nM on NDM-1, 0.549 nM at VIM-1 (setting [4]) and 3.91 nM on IMP-1.

On to `Nc1ncc(-c2ccc(C(F)(F)F)c(S(N)(=O)=O)c2-c2nnn[nH]2)cn1` [Example 475, 3-(2-aminopyrimidin-5-yl)-2-(1H-tetrazol-5-yl)-6-(trifluoromethyl)benzenesulfonamide], for which, in assay [1], the “Escherichia coli MITC95” value was found to be 0.7813 µM. Besides, in assay [2], the “Serratia marcescens MITC95” value was 0.7813 µM. The “Klebsiella pneumoniae MITC95” value in assay [3] is 3.125 µM. Besides, the IC50 at NDM-1 turned out to be 5.13 nM; at VIM-1 (VIM-1 IC50, VIM-1 enzyme) it was 1.92 nM; on IMP-1, 13.7 nM.

Turning to `Nc1ncc(-c2ccc(C(F)(F)F)c(S(N)(=O)=O)c2-c2nnn[nH]2)cc1F` [Example 476, 3-(6-amino-5-fluoro-3-pyridyl)-2-(1H-tetrazol-5-yl)-6-(trifluoromethyl)benzenesulfonamide], the “Escherichia coli MITC95” value in assay [1] stood at 1.563 µM. In addition, the “Serratia marcescens MITC95” value in assay [2] was determined as 0.5859 µM. Further, the “Klebsiella pneumoniae MITC95” value in assay [3] is 1.563 µM. In addition, the IC50 at NDM-1 turned out to be 1.79 nM; at VIM-1 (setting [4]), 0.263 nM; at IMP-1, 3.98 nM.

Turning to `Nc1n[nH]c2cc(-c3ccc(C(F)(F)F)c(S(N)(=O)=O)c3-c3nnn[nH]3)ccc12` [Example 477, 3-(3-amino-1H-indazol-6-yl)-2-(1H-tetrazol-5-yl)-6-(trifluoromethyl)benzenesulfonamide], in assay [1], the “Escherichia coli MITC95” value was determined as 0.7813 µM. Also, the “Serratia marcescens MITC95” value in assay [2] was 0.5859 µM. The “Klebsiella pneumoniae MITC95” value in assay [3] was 6.25 µM. Also, the IC50 stood at 1.01 nM on NDM-1, 0.722 nM on VIM-1 (setting [4]) and 6.38 nM at IMP-1.

With `Nc1ccnc2cc(-c3ccc(C(F)(F)F)c(S(N)(=O)=O)c3-c3nnn[nH]3)ccc12` [Example 478, 3-(4-amino-7-quinolyl)-2-(1-tetrazol-5-yl)-6-(trifluoromethyl)benzenesulfonamide], in assay [1], the “Escherichia coli MITC95” value was determined as 0.7813 µM. Besides, the “Serratia marcescens MITC95” value in assay [2] was found to be 2.344 µM. In addition, in assay [3], the “Klebsiella pneumoniae MITC95” value amounted to 0.7813 µM. Further, the IC50 turned out to be 24.6 nM on NDM-1, 0.639 nM at VIM-1 (setting [4]) and 88.1 nM at IMP-1.

Turning to `Nc1ccnc2ccc(-c3ccc(C(F)(F)F)c(S(N)(=O)=O)c3-c3nnn[nH]3)cc12` [Example 479, 3-(4-amino-6-quinolyl)-2-(1H-tetrazol-5-yl)-6-(trifluoromethyl)benzenesulfonamide], the “Escherichia coli MITC95” value in assay [1] was found to be 0.3906 µM. Also, in assay [2], the “Serratia marcescens MITC95” value turned out to be 1.563 µM. Further, the “Klebsiella pneumoniae MITC95” value in assay [3] is 0.7813 µM. Besides, the IC50 on NDM-1 came out at 6.66 nM; at VIM-1 (setting [4]), 0.373 nM; at IMP-1, 30.3 nM.

For the compound `Nc1n[nH]c2ccc(-c3ccc(C(F)(F)F)c(S(N)(=O)=O)c3-c3nnn[nH]3)cc12` [Example 480, 3-(3-amino-1H-indazol-5-yl)-2-(1H-tetrazol-5-yl)-6-(trifluoromethyl)benzenesulfonamide], the “Escherichia coli MITC95” value in assay [1] worked out at 0.7813 µM. Further, the “Serratia marcescens MITC95” value in assay [2] was 0.7813 µM. The “Klebsiella pneumoniae MITC95” value in assay [3] came out at 2.344 µM. The values for the IC50 at NDM-1, at VIM-1 (setting [4]) and on IMP-1 were 0.871 nM, 0.264 nM and 9.14 nM, respectively.

As for `N=C(N)c1nc2c(-c3ccc(C(F)(F)F)c(S(N)(=O)=O)c3-c3nnn[nH]3)cccc2s1` [Example 482, 4-(3-Sulfamoyl-2-(1H-tetrazol-5-yl)-4-(trifluoromethyl)phenyl)benzo[d]thiazole-2-carboximidamide], the “Escherichia coli MITC95” value in assay [1] was found to be 1.563 µM. In assay [2], the “Serratia marcescens MITC95” value was 3.125 µM. Besides, in assay [3], the “Klebsiella pneumoniae MITC95” value turned out to be 3.125 µM. Besides, the IC50 at NDM-1 was 0.889 nM; at VIM-1 (setting [4]), 0.194 nM; on IMP-1, 7.24 nM.

With `N#Cc1nc2c(-c3ccc(C(F)(F)F)c(S(N)(=O)=O)c3-c3nnn[nH]3)cccc2s1` [Example 483, 3-(2-Cyanobenzo[d]thiazol-4-yl)-2-(1H-tetrazol-5-yl)-6-(trifluoromethyl)benzenesulfonamide], the “Escherichia coli MITC95” value in assay [1] was found to be 6.25 µM. In addition, the “Serratia marcescens MITC95” value in assay [2] worked out at 25 µM. Besides, in assay [3], the “Klebsiella pneumoniae MITC95” value is 12.5 µM. The IC50 was 0.755 nM at NDM-1, 0.216 nM on VIM-1 (setting [4]) and 2.12 nM at IMP-1.

As for `NS(=O)(=O)c1c(C(F)(F)F)ccc(-c2cccn3cncc23)c1-c1nnn[nH]1` [Example 485, 3-(Imidazo[1,5-a]pyridin-8-yl)-2-(1H-tetrazol-5-yl)-6-(trifluoromethyl)benzenesulfonamide], in assay [1], the “Escherichia coli MITC95” value was found to be 3.125 µM. Further, the “Serratia marcescens MITC95” value in assay [2] was 12.5 µM. The “Klebsiella pneumoniae MITC95” value in assay [3] was found to be 6.25 µM. Also, the IC50 turned out to be 1.57 nM on NDM-1, 0.197 nM at VIM-1 (setting [4]) and 4.98 nM at IMP-1.
